In paper PMC4457643 (Biochimica et biophysica acta, 2015):
Like-named read-outs stand apart in the source and are kept apart here.

Tests used:
[1] = free ligand; cited from earlier work
CcP(triLeu) [2] = molecular target: T1, CcP(triLeu) (Saccharomyces cerevisiae, UniProt P00431, H119L/R115L/W118L); assay: biochemical; format: binding, yeast
CcP(triVal) [3] = molecular target: T2, CcP(triVal) (Saccharomyces cerevisiae, UniProt P00431, H119V/R115V/W118V); assay: biochemical; format: binding, yeast; conditions: for share of absorbance change, high-affinity (KD1) phase / share of absorbance change, low-affinity (KD2) phase: pH 7.0
CcP(triAla) [4] = molecular target: T3, CcP(triAla) (Saccharomyces cerevisiae, UniProt P00431, H119A/R115A/W118A); assay: biochemical; format: binding, yeast; conditions: for share of absorbance change, high-affinity (KD1) phase / share of absorbance change, low-affinity (KD2) phase: pH 7.0
CcP(triLeu) [5] = molecular target: T1, CcP(triLeu); assay: Stopped-flow kinetics of imidazole binding to CcP; set-up: species or system yeast; conditions: for pKa1 for ka^app / pKa2 for ka^app: fit to Eq. 4 with pKa1 ≤ pKa2
CcP(triVal) [6] = molecular target: T2, CcP(triVal); assay: Stopped-flow kinetics of imidazole binding to CcP; set-up: species or system yeast; conditions: for pKa1 for ka^app / kd^app, k^acid (low pH limit): fit to Eq. 4; for ka^app, k^acid (low pH value): fit to Eq. 4, 0.10 M ionic strength, 25 °C; for ka^app / kd^app / kmax: pH 7
CcP(triAla) [7] = molecular target: T3, CcP(triAla); assay: Stopped-flow kinetics of imidazole binding to CcP; set-up: species or system yeast
[8] = fast phase, fit to Eq. 4, 0.10 M ionic strength, 25 °C
[9] = fast phase, listed as imidazole
[10] = slow phase, single-ionization fit
[11] = slow phase, listed as imidazole
[12] = read-out: KD1 (high-affinity phase), pH 7.0, 0.10 M ionic strength potassium phosphate buffer
[13] = read-out: KD1base (high pH limit of KD1), fit of pH dependence pH 4-8 to Eq. 2
[14] = read-out: KD2 (low-affinity phase), pH 7.0, 0.10 M ionic strength potassium phosphate buffer
[15] = read-out: KD1acid (low pH limit of KD1), fit of pH dependence pH 4-8 to Eq. 2
[16] = read-out: KD2base (high pH limit of KD2), fit of pH dependence pH 4-8 to Eq. 2

T1 sequence (P00431 68-361 R115L/W118L/H119L): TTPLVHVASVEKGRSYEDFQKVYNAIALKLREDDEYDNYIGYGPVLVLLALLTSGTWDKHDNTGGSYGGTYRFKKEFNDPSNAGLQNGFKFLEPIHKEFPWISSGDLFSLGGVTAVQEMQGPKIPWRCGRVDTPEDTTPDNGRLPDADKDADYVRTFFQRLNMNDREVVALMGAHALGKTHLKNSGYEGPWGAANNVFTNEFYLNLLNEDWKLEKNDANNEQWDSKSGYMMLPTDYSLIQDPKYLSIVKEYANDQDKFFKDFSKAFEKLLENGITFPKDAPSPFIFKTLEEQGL
T3 sequence (P00431 68-361 R115A/W118A/H119A): as the sequence (P00431 68-361 R115L/W118L/H119L) above, with L48A, L51A, L52A counted along it
T2 sequence (P00431 68-361 R115V/W118V/H119V): as the sequence (P00431 68-361 R115L/W118L/H119L) above, with L48V, L51V, L52V counted along it

Compound: O=[N+]([O-])c1c[nH]cn1 [4-Nitroimidazole, 4-nitroimidazole]
- pKa for the imidazole/imidazolate ionization [1]: 9.5
- Kd (CcP(triLeu) [2]): 35 mM
- Kd (CcP(triVal) [3]): 0.56 mM
- Kd (CcP(triAla) [4]): 16 mM

Compound: c1c[nH]cn1 [Imidazole]
- ka^app, k^acid (low pH value) (CcP(triLeu) [5]; [8]): 2.2 ± 0.4 M^−1 s^−1
- ka^app, k^base (high pH value) (CcP(triLeu) [5]; [8]): 0 ± 25 M^−1 s^−1
- ka^app, k^base (high pH value) (CcP(triLeu) [5]; fast phase, fit to Eq. 4, 0.10 M ionic strength, 25 °C, listed as imidazole): less than 25 M^−1 s^−1
- pKa1 for ka^app (CcP(triLeu) [5]; fast phase): 7.3 ± 0.9
- pKa2 for ka^app (CcP(triLeu) [5]; fast phase): 7.3 ± 1.5
- pKa1 for ka^app (CcP(triLeu) [5]; [9]): 7.3
- pKa2 for ka^app (CcP(triLeu) [5]; [9]): 7.3
- ka^app (CcP(triLeu) [5]; fast phase, pH 7): 36 ± 4 M⁻¹ s⁻¹
- kd^app (CcP(triLeu) [5]; fast phase, pH 7): 0.24 ± 0.03 s⁻¹
- kd^app, pH-independent average value (CcP(triLeu) [5]; fast phase, pH range 4 to 8): 0.38 ± 0.12 s^−1
- kmax, average value (CcP(triLeu) [5]; slow phase, averaged over pH range 4 to 8): 0.048 ± 0.018 s⁻¹
- kmax (CcP(triLeu) [5]; slow phase, pH 7): 0.070 ± 0.002 s⁻¹
- kmax (= kslow), k^acid (low pH value) (CcP(triLeu) [5]; [10]): 0.032 ± 0.003 s^−1
- kmax (= kslow), k^neut (high pH value) (CcP(triLeu) [5]; [10]): 0.077 ± 0.011 s^−1
- pKa1 for kmax (CcP(triLeu) [5]; [10]): 6.7 ± 0.4
- pKa1 for ka^app (CcP(triVal) [6]; fast phase): 6.2 ± 0.3
- ka^app, k^acid (low pH value) (CcP(triVal) [6]; fast phase): 5.4 ± 16.2 M^−1 s^−1
- ka^app, k^acid (low pH value) (CcP(triVal) [6]; [9]): 5.4 M^−1 s^−1
- ka^app (CcP(triVal) [6]; fast phase): 170 ± 7 M⁻¹ s⁻¹
- kd^app (CcP(triVal) [6]; fast phase): 0.32 ± 0.01 s⁻¹
- kmax (CcP(triVal) [6]; fast phase): 1.9 ± 0.1 s⁻¹
- kd^app, pH-independent average value (CcP(triVal) [6]; fast phase, pH range 4 to 8): 0.25 ± 0.08 s^−1
- kmax, pH-independent value (CcP(triVal) [6]; fast phase, pH range 4 to 8): 1.5 ± 0.3 s^−1
- kmax, pH-independent value (CcP(triVal) [6]; fast phase, pH range 4 to 8, listed as imidazole): 1.5 s^−1
- kd^app, k^acid (low pH limit) (CcP(triVal) [6]; slow phase): 0.026 ± 0.009 s^−1
- pKa1 for ka^app (CcP(triVal) [6]; slow phase): 7.6 ± 0.3
- ka^app, k^acid (low pH value) (CcP(triVal) [6]; slow phase): 1.3 ± 0.7 M^−1 s^−1
- ka^app, k^acid (low pH value) (CcP(triVal) [6]; [11]): 1.3 M^−1 s^−1
- kd^app, k^acid (low pH limit) (CcP(triVal) [6]; [11]): 0.026 s^−1
- ka^app (CcP(triVal) [6]; slow phase): 30 ± 10 M⁻¹ s⁻¹
- kd^app (CcP(triVal) [6]; slow phase): 0.050 ± 0,006 s^−1
- kmax (CcP(triVal) [6]; slow phase): 0.16 ± 0.08 s⁻¹
- kmax, pH-independent value (CcP(triVal) [6]; slow phase, pH range 4 to 8): 0.17 ± 0.04 s^−1
- kmax, pH-independent value (CcP(triVal) [6]; slow phase, pH range 4 to 8, listed as imidazole): 0.17 s^−1
- pKa1 for ka^app (CcP(triAla) [7]; fast phase, fit to Eq. 4): 7.0 ± 0.2
- ka^app, k^acid (low pH value) (CcP(triAla) [7]; [8]): 2.2 ± 0.4 M^−1 s^−1
- ka^app (CcP(triAla) [7]; fast phase, pH 7): 80 ± 7 M⁻¹ s⁻¹
- kd^app (CcP(triAla) [7]; fast phase, pH 7): 0.43 ± 0.04 s⁻¹
- kd^app, pH-independent average value (CcP(triAla) [7]; fast phase, pH range 4.0 to 8.0): 0.47 ± 0.10 s^−1
- kmax (CcP(triAla) [7]; slow phase, pH 7): 0.050 ± 0.009 s⁻¹
- kmax (= kslow), pH-independent average value (CcP(triAla) [7]; slow phase, pH range 4.0 to 8.0): 0.032 ± 0.011 s^−1
- kmax (= kslow), pH-independent average value (CcP(triAla) [7]; slow phase, pH range 4.0 to 8.0, listed as imidazole): (3.2 ± 1.1) × 10^−2 s^−1
- share of absorbance change, high-affinity (KD1) phase (CcP(triLeu) [2]; pH 7.0): 78%
- share of absorbance change, low-affinity (KD2) phase (CcP(triLeu) [2]; pH 7.0): 22%
- Kd (CcP(triLeu) [2]; [12]): 0.6 mM
- Kd (CcP(triLeu) [2]; [13]): 0.22 ± 0.15 mM
- Kd (CcP(triLeu) [2]; [14]): 17 mM
- high-affinity imidazole binding stronger than for wild-type CcP (CcP(triVal) [3]; pH 7): 4.7 orders of magnitude
- share of absorbance change, high-affinity (KD1) phase (CcP(triVal) [3]): 68%
- share of absorbance change, low-affinity (KD2) phase (CcP(triVal) [3]): 32%
- share of absorbance change, high-affinity phase, average (CcP(triVal) [3]; pH range 4 to 8): 67 ± 10%
- Kd (CcP(triVal) [3]; [12]): 0.083 mM
- Kd (CcP(triVal) [3]; [15]): 9.6 ± 5.5 mM
- Kd (CcP(triVal) [3]; [13]): 0.096 ± 0.007 mM
- Kd (CcP(triVal) [3]; read-out: KD1base (high pH limit of KD1), fit of pH dependence to Eq. 2): 0.096 ± 0.007 mM
- Kd (CcP(triVal) [3]; [14]): 12 mM
- Kd (CcP(triVal) [3]; [16]): 6.7 ± 2.3 mM
- share of absorbance change at 414 nm, low-affinity phase (CcP(triAla) [4]; between pH 4 and 8): 75 ± 8%
- share of absorbance change, low-affinity phase (CcP(triAla) [4]; pH 5.5): 76%
- share of absorbance change, high-affinity (KD1) phase (CcP(triAla) [4]): 17%
- share of absorbance change, low-affinity (KD2) phase (CcP(triAla) [4]): 83%
- Kd (CcP(triAla) [4]; read-out: KD1 (high-affinity phase), pH 5.5, 25 °C): 0.1 ± 0.03 mM
- Kd (CcP(triAla) [4]; [12]): 0.22 mM
- Kd (CcP(triAla) [4]; [15]): > 25 mM
- Kd (CcP(triAla) [4]; [13]): 0.13 ± 0.06 mM
- Kd (CcP(triAla) [4]; [14]): 12 mM
- Kd (CcP(triAla) [4]; read-out: KD2 (low-affinity phase), pH 7.0, 25 °C): 11 ± 1 mM
- Kd (CcP(triAla) [4]; [16]): 6.4 ± 0.7 mM

Compound: Cn1ccnc1 [1-Methylimidazole, 1-methylimidazole]
- Kd (CcP(triLeu) [2]): 39 mM
- Kd (CcP(triVal) [3]): 0.16 mM
- share of absorbance change, high-affinity (KD1) phase (CcP(triVal) [3]): 77%
- share of absorbance change, low-affinity (KD2) phase (CcP(triVal) [3]): 23%
- Kd (CcP(triVal) [3]; [14]): 6.8 mM
- Kd (CcP(triAla) [4]): 0.35 mM
- share of absorbance change, high-affinity (KD1) phase (CcP(triAla) [4]): 30%
- share of absorbance change, low-affinity (KD2) phase (CcP(triAla) [4]): 70%
- share of absorbance change, low-affinity (KD2) phase (CcP(triAla) [4]; listed as MIM): about 70%
